Tests used:
[1] = Am80 release from alkali-treated collagen composite materials in PBS, HPLC; type: physicochemical; settings: PBS pH7.4, 37° C., in one day
Protocol: The high-molecular-weight matrices containing the low-molecular-weight organic compound prepared in 2-1 mentioned above were dried in a desiccator and then heated in an oven at 80° C. for 10 min. These composite materials were used as samples for HPLC.
The thus produced high-molecular-weight matrices were each transferred in a 250 mL polyethylene container, and 200 mL of PBS (pH7.4) was added thereto. These were heated in an incubator at 37° C. The supernatant thereof was sampled in a time course manner, and 50 μL each was assayed by HPLC.
In the HPLC method, the Nacalai Tesque COSMOSIL Packed Column (Size: 4.6 I.D.×150 mm; Type: 5C18-AR II ATERS) was used as the column, and a 5% HOAc/CH3CN=35/65 (v/v) aqueous solution was used as the eluent. The flow rate was 1.00 mL/min, and the column temperature was 40.0° C. The detection was conducted by UV-visible spectroscopy.
The elusion amount was calculated based on a calibration curve that had been formed in advance. Three kinds of drug/PBS (pH7.4) solutions were prepared within a concentration range from 1.14 μM to 569 μM, and assayed by HPLC. The condition for this assay was the same as the above. […]
In the HPLC method, the Am80 elusion amount was calculated under the same conditions as for the above-mentioned method.

[2] = Composite formation of AlGltn/TSC matrix containing amino acid derivative after immersion in water; type: physicochemical; settings: 100 mM amino acid derivative, 20 mM TSC, water at 4° C. for one day
Protocol: High-molecular-weight matrices formed from alkali-treated gelatin (AlGltn; derived from pig bone) and TSC (citric acid derivative), in which an amino acid derivative was contained, were prepared. By immersing in water, DMSO was replaced by water and the amino acid was precipitated. The behavior of the high-molecular-weight matrices after the precipitation was observed by each type and concentration of the amino acid.
400 μl of a DMSO solution containing 15 w/v % AlGltn and 10% lactic acid was added with an amino acid derivative to give 100 mM in a 2 ml tube. The mixture was agitated and degassed. 100 μl of a 10% lactic acid-containing DMSO was added with TSC at 20 mM (4.84 mg) and agitated. The solution made by addition of the amino acid derivative to the AlGltn/10% lactic acid-containing DMSO solution, agitation, and degasification, was added with the TSC/10% lactic acid-containing DMSO solution. The mixture was agitated for 30 seconds and then degassed for 30 seconds. After leaving still for one day, the resulting high-molecular-weight matrix was taken out and immersed in water at 4° C. for one day. The gel was taken out and its behavior was observed.

| Am80 released [1] | Composite formation [2] | Compound |
| --- | --- | --- |
| 49% |  | CC1(C)CCC(C)(C)c2cc(NC(=O)c3ccc(C(=O)O)cc3)ccc21 [Am80, Tamibarotene] |
|  | Present | O=C(N[C@@H](Cc1ccccc1)C(=O)O)OCC1c2ccccc2-c2ccccc21 [FmocPheOH] |
|  | Present | CC[C@H](C)[C@H](NC(=O)OCC1c2ccccc2-c2ccccc21)C(=O)O [FmocIleOH] |
|  | Present | CC(C)(C)OC[C@H](NC(=O)OCC1c2ccccc2-c2ccccc21)C(=O)O [FmocSer(tBu)OH] |
|  | Present | O=C(N[C@@H](Cc1c[nH]c2ccccc12)C(=O)O)OCC1c2ccccc2-c2ccccc21 [FmocTrpOH] |
|  | Absent | CC(=O)N[C@@H](Cc1ccc(O)cc1)C(N)=O [AcTyrNH2] |
|  | Absent | CC(=O)NC(Cc1c[nH]c2ccccc12)C(N)=O (stereo not shown) [AcTrpNH2] |

Reference: patent publication US20110251281A1, “Composite Material Comprising High-Molecular-Weight Matrix and Low-Molecular-Weight Organic Compound and Process For Producing Same” (NATIONAL INSTITUTE FOR MATERIALS SCIENCE, priority 2008, published 2011)
